Measurements as given in PMC11079024, “Identification of a family of species-selective complex I inhibitors as potential anthelmintics” (Nature Communications, 2024).
“And” between values parts separate entries of the source, which are not always exact repeats. Identical values can stand only once. Like-named read-outs stand apart in the source and are kept apart here.

Columns and labels:
C. elegans = C. elegans chemical screens of RIKEN NPD libraries at 50 μM (hit identification in KCN survival and development/viability assays); format: cell-based, Caenorhabditis elegans; conditions: screened at 50 μM in triplicate; hit = modified z-score < −3; KCN = KCN survival assay, Dev. & Viability = development/viability assay
HEK293 cells = conditions: human, 2 days, 6.3 µM
in vitro = conditions: human
L1 wild-type C. elegans [1] = assay: whole plant or invertebrate; conditions: Caenorhabditis elegans, 15 h
L1 wild-type C. elegans [2] = assay: 15-hour motility assay with drug alone (no KCN); format: cell-based, Caenorhabditis elegans; conditions: without KCN, 15-hour; for Value relative to DMSO control, drug alone (without KCN), Mean: mean of replicates; for Value relative to DMSO control, drug alone (without KCN): single replicates
L1 wild-type C. elegans [3] = conditions: for KCN survival assay value relative to DMSO control, Mean / KCN survival assay value relative to DMSO control: drug + KCN, 15-hour; for KCN survival assay value relative to DMSO control, Mean: mean of replicates; for KCN survival assay value relative to DMSO control: single replicates
adult H. polygyrus = assay: microbe, parasite or virus in culture; format: cell-based, Heligmosomoides polygyrus
Method: To investigate the impact of the eleven benzimidazole derivatives under anaerobic conditions, an anaerobic chamber with an integrated incubator (Coy Laboratory Products, USA) was used. The same procedure was followed as described for the aerobic drug screening in adult H. polygyrus, but the incubation took place within the anaerobic chamber (37 °C, 85% N2, 10% CO2, 5% H2). Benzimidazole derivatives were tested at a concentration of 10 µM. For scoring, the plates had to be removed from the anaerobic chamber. The whole experiment was performed two times i.e., two independent biological replicates.
The activities of eleven benzimidazole derivatives were tested against adult H. polygyrus viability in vitro under aerobic (+, white boxplots) and anaerobic (–, coloured boxplots) conditions (see Methods). After 24-hour chemical treatment, worm viability was manually scored by an examiner using a scale from 0 (dead) to 3 (motile); DMSO was used as a negative control in both aerobic and anaerobic conditions; levamisole was used as a positive control in anaerobic conditions. The percentage of affected worms (i.e., worms with a score equal to or lower than 1.5) in each biological replicate is shown; data are from two biological replicates. Within each boxplot, black horizontal lines denote group medians, boxes span from the 25th to the 75th percentile of each group’s distribution, and whiskers extend to the maximum and minimum values. […]

H. polygyrus = conditions: cited from earlier work
[4] = read-out: C. elegans KCN Survival Assay LC50

Fc1ccc(C(c2ccc(F)cc2)N2CCN(C/C=C/c3ccccc3)CC2)cc1 [Flunarizine]
Hit Type (C. elegans): KCN
HEK293 viability (HEK293 cells): 1.000
CC50 at 2 days (in vitro; HEK293 Cell Viability Assay LC50): 30.2 µM
viability (in vitro; HEK293 viability): 92.6%
viability at 2 days, 0.4 µM (in vitro; HEK293 viability): 88.1%
viability at 2 days, 0.8 µM (in vitro; HEK293 viability): 81.5%
viability at 2 days, 6.3 µM (in vitro; HEK293 viability): 100%
viability at 2 days, 12.5 µM (in vitro; HEK293 viability): 99.4%
viability at 2 days, 50 µM (in vitro; HEK293 viability): 17.1%
LC50 (L1 wild-type C. elegans [1]; [4]): 22 µM

O=C(Nc1ccc([N+](=O)[O-])cc1Cl)c1cc(Cl)ccc1O [Niclosamide]
Hit Type (C. elegans): KCN
Value relative to DMSO control, drug alone (without KCN), Mean (L1 wild-type C. elegans [2]; 0.025 µM): 1.071
Value relative to DMSO control, drug alone (without KCN) (L1 wild-type C. elegans [2]; 0.025 µM): 0.995 and 1.216 and 1.349 and 0.779 and 1.019
Value relative to DMSO control, drug alone (without KCN), Mean (L1 wild-type C. elegans [2]; 0.05 µM): 1.075
Value relative to DMSO control, drug alone (without KCN) (L1 wild-type C. elegans [2]; 0.05 µM): 1.004 and 1.000 and 1.245 and 1.142 and 0.983
Value relative to DMSO control, drug alone (without KCN), Mean (L1 wild-type C. elegans [2]; 0.1 µM): 0.944
Value relative to DMSO control, drug alone (without KCN) (L1 wild-type C. elegans [2]; 0.1 µM): 0.881 and 0.705 and 1.000 and 1.091 and 1.040
Value relative to DMSO control, drug alone (without KCN), Mean (L1 wild-type C. elegans [2]; 0.2 µM): 0.857
Value relative to DMSO control, drug alone (without KCN) (L1 wild-type C. elegans [2]; 0.2 µM): 0.621 and 0.780 and 0.965 and 0.960 and 0.957
Value relative to DMSO control, drug alone (without KCN), Mean (L1 wild-type C. elegans [2]; 0.4 µM): 0.828
Value relative to DMSO control, drug alone (without KCN) (L1 wild-type C. elegans [2]; 0.4 µM): 0.811 and 0.792 and 0.740 and 0.844 and 0.957
Value relative to DMSO control, drug alone (without KCN), Mean (L1 wild-type C. elegans [2]; 0.8 µM): 0.938
Value relative to DMSO control, drug alone (without KCN) (L1 wild-type C. elegans [2]; 0.8 µM): 0.966 and 0.718 and 0.993 and 1.008 and 1.003
Value relative to DMSO control, drug alone (without KCN), Mean (L1 wild-type C. elegans [2]; 3.1 µM): 0.892
Value relative to DMSO control, drug alone (without KCN) (L1 wild-type C. elegans [2]; 3.1 µM): 0.775 and 0.855 and 0.898 and 1.068 and 0.863
Value relative to DMSO control, drug alone (without KCN), Mean (L1 wild-type C. elegans [2]; 6.3 µM): 0.921
Value relative to DMSO control, drug alone (without KCN) (L1 wild-type C. elegans [2]; 6.3 µM): 0.820 and 1.003 and 0.834 and 0.940 and 1.007
Value relative to DMSO control, drug alone (without KCN), Mean (L1 wild-type C. elegans [2]; 12.5 µM): 1.018
Value relative to DMSO control, drug alone (without KCN) (L1 wild-type C. elegans [2]; 12.5 µM): 0.937 and 0.884 and 0.971 and 1.234 and 1.065
Value relative to DMSO control, drug alone (without KCN), Mean (L1 wild-type C. elegans [2]; 25 µM): 0.884
Value relative to DMSO control, drug alone (without KCN) (L1 wild-type C. elegans [2]; 25 µM): 0.851 and 0.847 and 1.014 and 1.053 and 0.655
C. elegans L1 relative motility, 3-hour post 200 µM KCN dilution (L1 wild-type C. elegans [3]; dose 0.05 µM, Mean of replicates): 1.030
C. elegans L1 relative motility, 3-hour post 200 µM KCN dilution (L1 wild-type C. elegans [3]; dose 0.05 µM, individual replicate (Rep)): 1.077 and 0.962 and 1.145
C. elegans L1 relative motility, 3-hour post 200 µM KCN dilution (L1 wild-type C. elegans [3]; dose 0.1 µM, Mean of replicates): 0.412
C. elegans L1 relative motility, 3-hour post 200 µM KCN dilution (L1 wild-type C. elegans [3]; dose 0.1 µM, individual replicate (Rep)): 0.940 and 1.178 and 0.971
C. elegans L1 relative motility, 3-hour post 200 µM KCN dilution (L1 wild-type C. elegans [3]; dose 0.2 µM, individual replicate (Rep)): 0.475 and 0.408 and 0.354
C. elegans L1 relative motility, 3-hour post 200 µM KCN dilution (L1 wild-type C. elegans [3]; dose 0.8 µM, Mean of replicates): 0.011
C. elegans L1 relative motility, 3-hour post 200 µM KCN dilution (L1 wild-type C. elegans [3]; dose 3.1 µM, Mean of replicates): 0.006
C. elegans L1 relative motility, 3-hour post 200 µM KCN dilution (L1 wild-type C. elegans [3]; dose 3.1 µM, individual replicate (Rep)): 0.000
C. elegans L1 relative motility, 3-hour post 200 µM KCN dilution (L1 wild-type C. elegans [3]; dose 6.3 µM, Mean of replicates): 0.039
C. elegans L1 relative motility, 3-hour post 200 µM KCN dilution (L1 wild-type C. elegans [3]; dose 12.5 µM, Mean of replicates): 0.0056
C. elegans L1 relative motility, 3-hour post 200 µM KCN dilution (L1 wild-type C. elegans [3]; dose 25 µM, Mean of replicates): 0.020
C. elegans L1 relative motility, 3-hour post 200 µM KCN dilution (L1 wild-type C. elegans [3]; dose […], Mean of replicates): 0.000
KCN survival assay value relative to DMSO control, Mean (L1 wild-type C. elegans [3]; 0.025 µM): 1.061
KCN survival assay value relative to DMSO control (L1 wild-type C. elegans [3]; 0.025 µM): 0.962 and 1.145 and 1.077
KCN survival assay value relative to DMSO control, Mean (L1 wild-type C. elegans [3]; 0.05 µM): 1.030
KCN survival assay value relative to DMSO control (L1 wild-type C. elegans [3]; 0.05 µM): 1.178 and 0.971 and 0.940
KCN survival assay value relative to DMSO control, Mean (L1 wild-type C. elegans [3]; 0.1 µM): 0.412
KCN survival assay value relative to DMSO control (L1 wild-type C. elegans [3]; 0.1 µM): 0.408 and 0.354 and 0.475
KCN survival assay value relative to DMSO control, Mean (L1 wild-type C. elegans [3]; 0.2 µM): 0.114
KCN survival assay value relative to DMSO control, Mean (L1 wild-type C. elegans [3]; 0.4 µM): 0.0075
KCN survival assay value relative to DMSO control, Mean (L1 wild-type C. elegans [3]; 0.8 µM): 0.011
KCN survival assay value relative to DMSO control, Mean (L1 wild-type C. elegans [3]; 3.1 µM): 0.006
KCN survival assay value relative to DMSO control, Mean (L1 wild-type C. elegans [3]; 6.3 µM): 0.039
KCN survival assay value relative to DMSO control, Mean (L1 wild-type C. elegans [3]; 12.5 µM): 0.0056
KCN survival assay value relative to DMSO control, Mean (L1 wild-type C. elegans [3]; 25 µM): 0.020
LC50 (L1 wild-type C. elegans [1]; [4]): 0.095 µM
LC50 (L1 wild-type C. elegans [1]; read-out: C. elegans KCN survival assay LC50): 0.0948 µM

c1ccc([C@H]2CN3CCSC3=N2)cc1 [levamisole, reference compound]
# of Worms Affected (adult H. polygyrus): 12
killing at 10 µM (adult H. polygyrus; Heligmosomoides polygyrus, 24 h, read-out: Percent Worms Affected): 100%
reduction in H. polygyrus worm burden (H. polygyrus; mouse, in vivo, 1.25 mg/kg): 62%

CO/N=C1\C[C@]2(C[C@@H]3C[C@@H](C/C=C(\C)C[C@@H](C)/C=C/C=C4\CO[C@@H]5[C@H](O)C(C)=C[C@@H](C(=O)O3)[C@]45O)O2)O[C@H](/C(C)=C/C(C)C)[C@H]1C [moxidectin]
reduction in H. polygyrus worm burden (H. polygyrus; single dose 1 mg/kg, mice): 99%
